Measured values reported in the NIST ThermoML archive (doi:10.1016/j.jct.2012.01.002).
Several values for one entry are separate records, joined by “and”; a condition that tells them apart may be missing. Identical values can stand only once.

What was measured:
[1] = 101.33 kPa, Liquid, Vibrating tube method
[2] = xn = mol fraction of the nth substance listed; details: 101 kPa, Liquid, Vibrating tube method

CCCCCCCC[N+](C)(CCCCCCCC)CCCCCCCC.O=S(=O)([N-]S(=O)(=O)C(F)(F)F)C(F)(F)F
[1]
Details | mass density [kg/m3]
298.15 K | 1106.9
303.15 K | 1103.2
313.15 K | 1095.7

CCCCCCCC[N+](C)(CCCCCCCC)CCCCCCCC.O=S(=O)([N-]S(=O)(=O)C(F)(F)F)C(F)(F)F + CC(C)O
mass density [kg/m3], [2]
Details | x1 = 0.053 | x1 = 0.1 | x1 = 0.2045 | x1 = 0.2841 | x1 = 0.3934 | x1 = 0.4824 | x1 = 0.5896 | x1 = 0.7066 | x1 = 0.7967 | x1 = 0.896
298.15 K | 876.9 | 932.6 | 1004.9 | 1033.8 | 1056.2 | 1067.6 | 1078.9 | 1089 | 1095.2 | 1100.5
303.15 K | 873 | 928.9 | 1001.5 | 1030.3 | 1052.6 | 1063.9 | 1075.2 | 1085.4 | 1091.6 | 1096.9
313.15 K | 865.1 | 921.3 | 994.7 | 1023.3 | 1045.1 | 1056.6 | 1068.1 | 1078.3 | 1084.4 | 1089.5

CCC(C)O (centres undefined) [butan-2-ol] + CCOC(C)=O
mass density [kg/m3], [2]
Details | 298.15 K | 303.15 K | 313.15 K
x1 = 0.0603 | 888.5 | 882.5 | 870.2
x1 = 0.1109 | 883.2 | 877.6 | 865.6
x1 = 0.1511 | 878.9 | 873.2 | 861.4
x1 = 0.1998 | 873.8 | 868.6 | 857.1
x1 = 0.2502 | 868.8 | 863.5 | 852.5
x1 = 0.302 | 863.6 | 858.4 | 847.5
x1 = 0.3489 | 858.9 | 853.9 | 843.2
x1 = 0.3988 | 854.1 | 849.2 | 838.7
x1 = 0.4506 | 849.4 | 844.4 | 834.3
x1 = 0.5011 | 844.6 | 839.9 | 829.9
x1 = 0.5631 | 839 | 834.3 | 824.5
x1 = 0.601 | 835.6 | 830.9 | 821.2
x1 = 0.6501 | 831.1 | 826.8 | 817.3
x1 = 0.7032 | 826.5 | 822.4 | 812.9
x1 = 0.752 | 822.5 | 818.3 | 808.9
x1 = 0.8012 | 818.4 | 814 | 805.1
x1 = 0.8498 | 814.6 | 810.1 | 801.4
x1 = 0.9028 | 810.3 | 805.8 | 797.4
x1 = 0.9519 | 806.7 | 802.4 | 794.4

CCCCCCCC[N+](C)(CCCCCCCC)CCCCCCCC.O=S(=O)([N-]S(=O)(=O)C(F)(F)F)C(F)(F)F + CCCCO
mass density [kg/m3], [2]
Details | x1 = 0.0654 | x1 = 0.1421 | x1 = 0.2623 | x1 = 0.3284 | x1 = 0.4437 | x1 = 0.5343 | x1 = 0.6385 | x1 = 0.7397 | x1 = 0.8432 | x1 = 0.9195
298.15 K | 898.1 | 962 | 1018 | 1037.3 | 1060.4 | 1072.8 | 1083.4 | 1091 | 1097.9 | 1102.1
303.15 K | 894.3 | 958.6 | 1014.6 | 1033.9 | 1056.8 | 1069.1 | 1079.8 | 1087.4 | 1094.2 | 1098.6
313.15 K | 887.2 | 951.8 | 1007.6 | 1026.9 | 1049.7 | 1062.1 | 1072.7 | 1080.5 | 1087.2 | 1091.6

CCCCCCCC[N+](C)(CCCCCCCC)CCCCCCCC.O=S(=O)([N-]S(=O)(=O)C(F)(F)F)C(F)(F)F + CCC(C)O
mass density [kg/m3], [2]
Details | x1 = 0.0654 | x1 = 0.1397 | x1 = 0.2623 | x1 = 0.3282 | x1 = 0.4054 | x1 = 0.5045 | x1 = 0.6051 | x1 = 0.7046 | x1 = 0.808 | x1 = 0.9067
298.15 K | 894.2 | 956.2 | 1013.8 | 1033.4 | 1050.6 | 1066.7 | 1078.5 | 1087.3 | 1094.6 | 1100.8
303.15 K | 890.3 | 952.7 | 1010.2 | 1029.7 | 1046.9 | 1063 | 1074.8 | 1083.7 | 1091 | 1097.2
313.15 K | 882.6 | 945.3 | 1003.1 | 1022.5 | 1039.7 | 1055.7 | 1067.6 | 1076.5 | 1083.9 | 1090

CCOC(C)=O [ethyl acetate] + CCCCO
mass density [kg/m3], [2]
Details | 298.15 K | 303.15 K | 313.15 K
x2 = 0.0904 | 886.5 | 880.4 | 869.6
x2 = 0.1337 | 882.3 | 876.8 | 866
x2 = 0.2525 | 871.5 | 866.7 | 856.6
x2 = 0.3723 | 860.7 | 856.6 | 846.8
x2 = 0.4807 | 851 | 847.5 | 838
x2 = 0.5955 | 840.9 | 838 | 828.8
x2 = 0.7032 | 831.5 | 828.8 | 820.1
x2 = 0.8009 | 823 | 820.6 | 812.3
x2 = 0.8916 | 815.1 | 813 | 805
x2 = 0.9641 | 808.6 | 806.7 | 799.4
x2 = 0.9795 | 807.3 | 805.3 | 798.1

CCCCCCCC[N+](C)(CCCCCCCC)CCCCCCCC.O=S(=O)([N-]S(=O)(=O)C(F)(F)F)C(F)(F)F + CCOC(C)=O
mass density, [2]
Details | x1 = 0.1167 | x1 = 0.2291 | x1 = 0.4417 | x1 = 0.5433 | x1 = 0.7037 | x1 = 0.7993 | x1 = 0.9209
298.15 K | 848.1 kg/m3 and 989.9 kg/m3 | 1034.5 kg/m3 | 1074.7 kg/m3 | 1085.4 kg/m3 | 1096.7 kg/m3 | 1101.3 kg/m3 | 1105.4 kg/m3
303.15 K | 984.9 kg/m3 | 1029.5 kg/m3 | 1069.6 kg/m3 | 1080.3 kg/m3 | 1091.5 kg/m3 | 1096.2 kg/m3 | 1100.5 kg/m3
313.15 K | 974.9 kg/m3 | 1020.9 kg/m3 | 1062.5 kg/m3 | 1073.4 kg/m3 | 1085 kg/m3 | 1089.6 kg/m3 | 1062.5 kg/m3 and 1094.1 kg/m3
